From US8119689B2, “Adjuvants on the basis of bisacyloxypropylcystene conjugates and derivatives and their uses in pharmaceutical compositions” (Helmholtz-Zentrum Fuer Infektionsforschung GmbH, priority 2005, dated 2012)

Test system: spleen cells
Experiment: In vitro T cell-mediated proliferative response of spleen cells restimulated with the adjuvant ([3H]thymidine)
Assay type: cell-based, Balb/c mice
Conditions: negative control 4armPEG or Ada
Experimental: FIG. 2: FIG. 2 illustrates the cellular responses of restimulated spleen cells using different concentrations of BPPcysGlyc4armPEG or BPPcysAda as adjuvant. […] Results are expressed as counts per minute (A) and (C) and stimulation indexes (cpm samples/cpm in control non stimulated cells) (B).
Experimental protocol: Spleens were removed and pooled for analysis of cellular immune responses. Cells were grown in RPMI 1640 supplemented with 10% fetal calf serum, 100 U/ml of penicillin, 50 μg/ml of streptomycin, 5×10^−5 M 2-mercaptoethanol and 1 mM L-glutamine (GIBCO BRL, Karlsruhe, Germany) and maintained at 37° C. in a humidified 5% CO2 atmosphere. Lymph node and spleen cell suspensions were adjusted to 5×10^6 cells/ml in complete medium, cells were seeded with 100 μl per well in a flat-bottomed 96-well microtiter plate (Nunc) and plates were incubated for 4 days in the presence of different concentrations of soluble β-gal. Each concentration was tested in quadruplicates. […] Cells were then harvested on paper filters (Filtermat A; Wallac, Freiburg, Germany) by using a cell harvester (Inotech, Wohlen, Switzerland), and the amount of incorporated [^3H]thymidine into the DNA of proliferating cells was determined by a […] (Wallac 1450, Micro-Trilux). The results are expressed as the arithmetic mean of [^3H]thymidine uptake in cpm. […]

## CCCCCCCCCCCCCCCC(=O)OCC(CSC[C@H](N)C(=O)N[C@H]1[C@@H](O)[C@H](n2cnc3c(N)ncnc32)O[C@@H]1CO)OC(=O)CCCCCCCCCCCCCCC (single isomer, unassigned) [BPPcysAda, S-[2,3-bis(palmitoyloxy)-(2S or 2R)-propyl]-L-cysteinylcarboxy-3′Amino-3′-deoxyadenosine]
  proliferative response of restimulated spleen cells (stimulation index): efficient proliferative response
